For the assay, the system named is pulmonary artery smooth muscle cells derived from patients with idiopathic pulmonary arterial hypertension (IPAH-PASMCs). As to the kind of experiment: Suppression of proliferation of IPAH-PASMCs (MTT assay). Format: cell-based, human. To be noted: 0.001-5 μM celastrol, 48 hours. The method, then:
The ability of celastrol to suppress the proliferation of pulmonary artery smooth muscle cells from patients with pulmonary hypertension (IPAH-PASMCs) was assessed. Specifically, first, on day −1, 66 μl each of pulmonary artery smooth muscle cells derived from patients with idiopathic pulmonary arterial hypertension (IPAH-PASMCs) suspended in a 10% FBS medium (DMEM supplemented with 10% FBS) were seeded in a 96-well plate at 50,000 cells/ml. 24 Hours after the cell seeding (the time point was defined as day 0), 33 μl each of 0.003 μM, 0.03 μM, 0.3 μM, 3 μM, and 15 μM solutions of celastrol in 10% FBS containing 1% DMSO were added to the wells so that the final concentrations were 0.001 μM, 0.01 μM, 0.1 μM, 1 μM, and 5 μM, respectively. As a control, 33 μl of 10% FBS containing 1% DMSO was added in place of celastrol. On day 0 (immediately before the addition of celastrol), a cell viability was confirmed by performing MTT assay using CellTiter 96 (trademark) AQueous One Solution Cell Proliferation Assay (promega). Further, on day 2, i.e., 48 hours after the addition of celastrol, the MTT assay was performed again to observe a change in cell viability. Thus, a cell proliferation-suppressing effect was assessed.
(Tetrazolium assays rely on reduction of a dye to a coloured formazan, in cell work by metabolically active cells.)

Each structure is given as a SMILES string.

Regarding `CC1=C(O)C(=O)C=C2C1=CC=C1[C@@]2(C)CC[C@@]2(C)[C@@H]3C[C@](C)(C(=O)O)CC[C@]3(C)CC[C@]12C` [celastrol, (2R,4aS,6aS,12bR,14aS,14bR)-10-hydroxy-2,4a,6a,9,12b,14a-hexamethyl-11-oxo-1,2,3,4,4a,5,6,6a,11,12b,13,14,14a,14b-tetradecahydropicene-2-carboxylic acid], the cell proliferation-suppressing effect entry is given as “a cell proliferation-suppressing effect on pulmonary artery smooth muscle cells derived from patients with idiopathic pulmonary arterial hypertension was obtained”.

(Values after patent publication US20190262357A1, “PREVENTATIVE OR THERAPEUTIC AGENT FOR PULMONARY HY[…] CRUDE DRUG COMPONENT” (TOHOKU UNIVERSITY, priority 2016, published 2019).)
